Data from US9434994B2, “Methods for prediction of clinical outcome to epidermal growth factor receptor inhibitors by non-small cell lung cancer patients” (The Regents of the University of Colorado, a body corporate, priority 2004, dated 2016).
Values joined by “and” are separate entries in the source; they are usually repeats but may differ in a detail not shown here. Equal values may be shown once. Read-outs that look alike come from different tables or passages of the source.

Tested on: advanced non-small-cell lung cancer patients
[1] = HER2 FISH- and/or EGFR mutation-
[2] = all 85 patients with EGFR mutation and P-Akt
[3] = all 89 patients with EGFR mutation analysis
[4] = all 98 patients with EGFR FISH and P-Akt
[5] = all 98 patients with EGFR IHC and P-Akt
[6] = all 102 patients, Example 1 analysis

COc1cc2ncnc(Nc3ccc(F)c(Cl)c3)c2cc1OCCCN1CCOCC1 [gefitinib]
TTP (HER2 FISH+/EGFR IHC+): 12.3 months
OS (HER2 FISH+/EGFR IHC-): 3.3 months
TTP (HER2 FISH+/EGFR IHC-): 2.3 months
DCR (HER2 FISH+/EGFR mutation+): 87.5%
OR (HER2 FISH+/EGFR mutation+): 87.5%
OS (HER2 FISH+/EGFR mutation+): not reached
TTP (HER2 FISH+/EGFR mutation+): 15.5 months
OR (HER2 FISH+/EGFR mutation-): no patient responded
TTP (HER2 FISH+/EGFR mutation-): 2.3 months
DCR (HER2 FISH-): 33.3%
OR (HER2 FISH-): 6.4%
OS (HER2 FISH-): 8.4 months
TTP (HER2 FISH-): 2.7 months
DCR (HER2 FISH- and/or EGFR FISH-): 33.0%
OR (HER2 FISH- and/or EGFR FISH-): 6.8%
median OS (HER2 FISH- and/or EGFR FISH-): 8.3 months
median TTP (HER2 FISH- and/or EGFR FISH-): 2.6 months
DCR (HER2 FISH- and/or EGFR IHC-): 34.5%
OR (HER2 FISH- and/or EGFR IHC-): 7.1%
OS (HER2 FISH- and/or EGFR IHC-): 8.4 months
TTP (HER2 FISH- and/or EGFR IHC-): 2.6 months
DCR [1]: 31.3%
OR [1]: 5.0%
OS [1]: 8.3
TTP [1]: 2.6 months
DCR (HER2 FISH-/EGFR FISH+): 30.0%
OR (HER2 FISH-/EGFR FISH+): 10.0%
median OS (HER2 FISH-/EGFR FISH+): 9.3 months
median TTP (HER2 FISH-/EGFR FISH+): 5.3 months
OR (HER2 FISH-/EGFR FISH-): 1.6%
median OS (HER2 FISH-/EGFR FISH-): 7.3 months
median TTP (HER2 FISH-/EGFR FISH-): 2.6 months
OR (HER2 FISH-/EGFR IHC+): 11.1%
OS (HER2 FISH-/EGFR IHC+): 11.3 months
TTP (HER2 FISH-/EGFR IHC+): 4.2 months
DCR (HER2 FISH-/EGFR IHC-): 13.7%
OR (HER2 FISH-/EGFR IHC-): 0%
OS (HER2 FISH-/EGFR IHC-): 5.0 months
TTP (HER2 FISH-/EGFR IHC-): 2.1 months
DCR (HER2 FISH-/EGFR mutation+): 28.5%
OR (HER2 FISH-/EGFR mutation+): 14.2%
OS (HER2 FISH-/EGFR mutation+): 5.7
TTP (HER2 FISH-/EGFR mutation+): 2.8 months
DCR (HER2 FISH-/EGFR mutation-): 32.2%
OR (HER2 FISH-/EGFR mutation-): 4.8%
Disease Control Rate (Italian Cohort, Table 12): 39%
Median Survival (Italian Cohort, Table 12): 9 (6-11)
Median Time to Progression (Italian Cohort, Table 12): 3 (2-4)
One-YR Survival (Italian Cohort, Table 12): 41% (31-51)
Overall Response (Italian Cohort, Table 12): 13%
Disease Control Rate (P-Akt negative): 22%
response rate (P-Akt negative): 0%
time to progression (P-Akt negative): 2.1 months
Survival (P-Akt positive): 11.4 months
response rate (P-Akt positive): 21%
time to progression (P-Akt positive): 4.2 months
1-year Cumulative Survival ± SD (adenocarcinoma): 45 ± 7%
Median Survival (adenocarcinoma): 11.3 months
Median Time to Progression (adenocarcinoma): 3.2 months
Objective Response (adenocarcinoma): 8/15%
Median Time to Progression [2]: 2.9 months
Objective Response [2]: 12/14%
1-year survival [3]: 41 ± 5
MS [3]: 9.4 mo
OR [3]: 12 (13%)
TTP [3]: 2.9 mo
1-year Cumulative Survival ± SD [4]: 47 ± 6%
Disease Control Rate [4]: 40/40%
Median Survival [4]: 11.5 months
Median Time to Progression [4]: 4.5 months
Objective Response [4]: 14/14%
MS (median overall survival) (all 98 patients with EGFR IHC): 9.5 mo
OR (objective response) (all 98 patients with EGFR IHC): 14 (14%)
PD (progressive disease) (all 98 patients with EGFR IHC): 58 (59%)
TTP (all 98 patients with EGFR IHC): 2.9 mo
1-year Cumulative Survival ± SD [5]: 45 ± 6%
Disease Control Rate [5]: 40/40%
Median Survival [5]: 11.3 months
Median Time to Progression [5]: 3.2 months
Objective Response [5]: 14/14%
Complete response (CR) (all 102 patients): 1%
Partial responses (PR) (all 102 patients): 12.7%
% Patients without disease progression at 12 months [6]: 18.6%
Complete and Partial Response [6]: 13.7% and 14%
Disease Control Rate [6]: 39.2% and 39%
Median Time to Progression [6]: 2.9 months
One-year Survival Rate [6]: 45.1%
Progressive Disease [6]: 60.8%
Stable Disease [6]: 25.5%
Median Time to Progression (all 102 patients, Table 1): 2.9 months
Objective Response (all 102 patients, Table 1): 14% and 14/14%
Progressive Disease (all 102 patients, Table 1): 60% and 62/60%
1-year Cumulative Survival ± SD (bronchioloalveolar): 67 ± 16%
Median Survival (bronchioloalveolar): 16.5 months
Median Time to Progression (bronchioloalveolar): 3.0 months
Objective Response (bronchioloalveolar): 3/33%
Progressive Disease (bronchioloalveolar): 5/56%
1-year Cumulative Survival ± SD (current smoker): 30 ± 6%
Median Survival (current smoker): 4.5 months
Median Time to Progression (current smoker): 2.3 months
Objective Response (current smoker): 3/6%
Progressive Disease (current smoker): 39/72%
1-year Cumulative Survival ± SD (female): 48 ± 9%
Median Survival (female): 11.3 months
Median Time to Progression (female): 5.2 months
Progressive Disease (female): 16/46%
median TTP (females, Example 1 analysis): 4.5 months
response rate (former and current smokers): 20.8%
1-year Cumulative Survival ± SD (former smoker): 55 ± 9%
Median Time to Progression (former smoker): 3.6 months
Objective Response (former smoker): 5/15%
Progressive Disease (former smoker): 17/51%
1-year Cumulative Survival ± SD (large cell): 0 ± 0%
Median Survival (large cell): 0.8 months
Median Time to Progression (large cell): 0.8 months
Objective Response (large cell): 0%
Progressive Disease (large cell): 2/100%
Median Time to Progression (male): 2.7 months
Objective Response (male): 6.0% and 4/6%
median TTP (males, Example 1 analysis): 2.7 months
1-year Cumulative Survival ± SD (never smoker): 47 ± 14%
Median Survival (never smoker): 10.9 months
Median Time to Progression (never smoker): 5.3 months
Progressive Disease (never smoker): 6/40%
Median Time to Progression (performance status 0): 2.6 months
Objective Response (performance status 0): 5/10%
Progressive Disease (performance status 0): 32/65%
1-year Cumulative Survival ± SD (performance status 1): 47 ± 8%
Median Survival (performance status 1): 10.9 months
Median Time to Progression (performance status 1): 4.2 months
Progressive Disease (performance status 1): 22/54%
1-year Cumulative Survival ± SD (performance status 2): 22 ± 13%
Median Survival (performance status 2): 2.7 months
Median Time to Progression (performance status 2): 2.1 months
Objective Response (performance status 2): 2/17%
1-year Cumulative Survival ± SD (squamous cell): 22 ± 9%
Median Time to Progression (squamous cell): 2.2 months
Objective Response (squamous cell): 2/8%
1-year Cumulative Survival ± SD (stage III): 36 ± 13%
Median Time to Progression (stage III): 6.0 months
Objective Response (stage III): 1/7%
Median Time to Progression (stage IV): 2.7 months
Objective Response (stage IV): 13/15%
1-year Cumulative Survival ± SD (undifferentiated): 45 ± 15%
Median Time to Progression (undifferentiated): 2.1 months
Objective Response (undifferentiated): 1/9%
